According to patent US9290465B2, “Substituted isoxazole amine compounds as inhibitors of SCD1” (Hoffmann-La Roche Inc., priority 2012, dated 2016):
Structures can show the parent of a compound that is named as a salt.

Key:
SCD1 = target: T1, SCD1 (Mus musculus, UniProt P13516); test: SCD assay: release of tritiated water from desaturation of 9,10-3H-stearoyl CoA, mouse liver microsomes; assay type: biochemical; conditions: mouse liver microsomes as SCD source; 300 nM (9,10) 3H-stearoyl CoA; 25 minutes at rt; read-out: IC50 (nM), in vitro inhibition of SCD1
T1 construct: Mouse liver microsomes, prepared from mice fed a high-carbohydrate diet, were a source of the SCD; from tissue; host or cells: mouse liver microsomes (mice fed a high-carbohydrate diet)
T1 sequence (P13516 1-355): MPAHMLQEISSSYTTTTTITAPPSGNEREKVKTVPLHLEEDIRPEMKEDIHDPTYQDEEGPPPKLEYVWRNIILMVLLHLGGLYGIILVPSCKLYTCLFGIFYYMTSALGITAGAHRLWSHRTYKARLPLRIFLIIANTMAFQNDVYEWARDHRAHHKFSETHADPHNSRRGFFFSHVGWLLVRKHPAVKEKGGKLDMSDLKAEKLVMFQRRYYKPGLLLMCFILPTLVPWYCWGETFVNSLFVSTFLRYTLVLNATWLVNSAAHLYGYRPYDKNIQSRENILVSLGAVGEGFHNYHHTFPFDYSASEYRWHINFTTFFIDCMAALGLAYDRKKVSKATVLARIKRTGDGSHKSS
From the text: Stearoyl CoA desaturase activity was monitored by a modification of the acyl carrier protein assay described by B. R. Talamo and K. Bloch in Anal. Biochem. 1968, 29, 300-304. The SCD assay monitors the release of tritiated water from the desaturation of 9,10-^3H-stearoyl CoA.
Mouse liver microsomes, prepared from mice fed a high-carbohydrate diet, were a source of the SCD and cyt b5 and cyt b5 reductase, necessary accessory proteins for the coupled reaction. Reaction mixtures for compound titrations contained 50 mM Tris HCl pH 7.5, 100 mM NaCl, 0.165 mg/mL BSA, 2.4% DMSO, 1 mM NADH, 0.03% T-20, and 300 nM (9,10) ^3H-stearoyl CoA (Perkin-Elmer). Reactions were initiated upon the addition of 4 ug/mL SCD microsomes. Incubations were terminated after 25 minutes at rt with cold 6% TCA. After standing 10 minutes at 4° C., samples were centrifuged 15 minutes at 4000 rpm to pellet precipitated protein. Supernatants were added to microtiter plates containing suspensions of activated charcoal (Darco G-60, Fisher Scientific) and mixed by inversion. Plates were then centrifuged to separate ^3H—H2O product from charcoal-bound reactants. Supernatants were quantitated in a Perkin Elmer Topcount 384 after solubilization in ScintiSafe Plus 50% (Fisher Scientific).
Inhibition (%) of SCD activity by compounds was calculated according to the following formula: % Inhibition=100*[1−(CPMsample−CPMblank)/(CPMtotal−CPMblank)].

SMILES	melting point [°C]	IC50 (SCD1) [nM]
Nc1conc1-c1ccc(OCc2ccc(Cl)cc2)cc1 (as salt: hydrochloride) [Example 25, 3-[4-(4-Chloro-benzyloxy)-phenyl]-isoxazol-4-ylamine hydrochloride]	174 to 176	
Nc1conc1-c1ccc(OCc2ccc(F)cc2)cc1 [Example 2, 3-[4-(4-Fluoro-benzyloxy)-phenyl]-isoxazol-4-ylamine]		612
Nc1conc1-c1ccc(OCc2ccccc2)cc1 [Example 3, 3-(4-Benzyloxy-phenyl)-isoxazol-4-ylamine]		464
COc1ccc(COc2ccc(-c3nocc3N)cc2)cc1 [Example 4, 3-[4-(4-Methoxy-benzyloxy)-phenyl]-isoxazol-4-ylamine]	92 to 98	104
COC(=O)c1ccc(COc2ccc(-c3nocc3N)cc2)cc1 [Example 5, 4-[4-(4-Amino-isoxazol-3-yl)-phenoxymethyl]-benzoic acid methyl ester hydrochloride]		152
CS(=O)(=O)c1ccc(COc2ccc(-c3nocc3N)cc2)cc1 [Example 6, 3-[4-(4-Methanesulfonyl-benzyloxy)-phenyl]-isoxazol-4-ylamine]		40
CS(=O)(=O)c1ccc(NCc2ccc(-c3nocc3N)cc2)cc1 [Example 7, 3-{4-[(4-methanesulfonyl-phenylamino)-methyl]-phenyl}-isoxazol-4-ylamine hydrochloride]		817
CS(=O)(=O)c1ccc(COc2ccc(-c3nocc3N)cc2)c(Cl)c1 [Example 8, 3-[4-(2-Chloro-4-methanesulfonyl-benzyloxy)-phenyl]-isoxazol-4-ylamine]		191
CS(=O)(=O)c1ccc(CCc2ccc(-c3nocc3N)cc2)cc1 [Example 9, 3-{4-[2-(4-Methanesulfonyl-phenyl)-ethyl]-phenyl}-isoxazol-4-ylamine]		280
Nc1conc1-c1ccc(OCCc2ccccc2)cc1 [Example 10]		1930
Nc1conc1-c1ccc(OCCCc2ccccc2)cc1 [Example 11, 3-[4-(3-Phenyl-propoxy)-phenyl]-isoxazol-4-ylamine]		372
CS(=O)(=O)c1ccc(COc2ccc(-c3nocc3N)nc2)cc1 [Example 12, 3-[5-(4-Methanesulfonyl-benzyloxy)-pyridin-2-yl]-isoxazol-4-ylamine]		466
Cc1onc(-c2ccc(OCc3ccc(S(C)(=O)=O)cc3)cc2)c1N [Example 13, 3-[4-(4-Methanesulfonyl-benzyloxy)-phenyl]-5-methyl-isoxazol-4-ylamine]		864
Nc1conc1-c1ccc(OCc2cccnc2)cc1 [Example 14, 3-[4-(Pyridin-3-ylmethoxy)-phenyl]-isoxazol-4-ylamine]		2200
Nc1conc1-c1ccc(OCC(=O)c2ccccc2)cc1 [Example 15, 2-[4-(4-Amino-isoxazol-3-yl)-phenoxy]-1-phenyl-ethanone hydrochloride]		395
Nc1conc1-c1ccc(OCc2ccc([N+](=O)[O-])cc2)cc1 [Example 16, 3-[4-(4-Nitro-benzyloxy)-phenyl]-isoxazol-4-ylamine hydrochloride]		264
N#Cc1ccc(COc2ccc(-c3nocc3N)cc2)cc1 [Example 17, 4-[4-(4-Amino-isoxazol-3-yl)-phenoxymethyl]-benzonitrile hydrochloride]		603
N#Cc1cccc(COc2ccc(-c3nocc3N)cc2)c1 [Example 18, 3-[4-(4-Amino-isoxazol-3-yl)-phenoxymethyl]-benzonitrile hydrochloride]		315

SMILES	melting point [°C]	IC50 (SCD1) [nM]
Nc1conc1-c1ccc(OCc2ccc(C(F)(F)F)cc2)cc1 [Example 19, 3-[4-(4-Trifluoromethyl-benzyloxy)-phenyl]-isoxazol-4-ylamine hydrochloride]		391
Nc1conc1-c1ccc(OCc2ccc(OC(F)(F)F)cc2)cc1 [Example 20, 3-[4-(4-Trifluoromethoxy-benzyloxy)-phenyl]-isoxazol-4-ylamine hydrochloride]		135
Nc1conc1-c1ccc(OCc2cc(F)cc(F)c2)cc1 [Example 21, 3-[4-(3,5-Difluoro-benzyloxy)-phenyl]-isoxazol-4-ylamine hydrochloride]		257
Nc1conc1-c1ccc(OCc2ccccc2Cl)cc1 [Example 22, 3-[4-(2-Chloro-benzyloxy)-phenyl]-isoxazol-4-ylamine hydrochloride]		1740
Cc1ccc(COc2ccc(-c3nocc3N)cc2)cc1C [Example 23, 3-[4-(3,4-Dimethyl-benzyloxy)-phenyl]-isoxazol-4-ylamine hydrochloride]		148
Nc1conc1-c1ccc(OCc2cccc(OC(F)(F)F)c2)cc1 [Example 24, 3-[4-(3-Trifluoromethoxy-benzyloxy)-phenyl]-isoxazol-4-ylamine hydrochloride]		1350
Nc1conc1-c1ccc(OCc2ccc(Cl)cc2)cc1 [Example 25, 3-[4-(4-Chloro-benzyloxy)-phenyl]-isoxazol-4-ylamine hydrochloride]		246
Nc1conc1-c1ccc(OCc2ccc(Cl)c(Cl)c2)cc1 [Example 26, 3-[4-(3,4-Dichloro-benzyloxy)-phenyl]-isoxazol-4-ylamine hydrochloride]		162
Cc1ccc(COc2ccc(-c3nocc3N)cc2)cc1 [Example 27, 3-[4-(4-Methyl-benzyloxy)-phenyl]-isoxazol-4-ylamine hydrochloride]		196
Nc1conc1-c1ccc(OCc2ccc(I)cc2)cc1 [Example 28, 3-[4-(4-Iodo-benzyloxy)-phenyl]-isoxazol-4-ylamine]		126
CC(C)c1ccc(COc2ccc(-c3nocc3N)cc2)cc1 [Example 29, 3-[4-(4-Isopropyl-benzyloxy)-phenyl]-isoxazol-4-ylamine]		161
CCS(=O)(=O)c1ccc(COc2ccc(-c3nocc3N)cc2)cc1 [Example 31, 3-[4-(4-Ethanesulfonyl-benzyloxy)-phenyl]-isoxazol-4-ylamine]		65
Nc1conc1-c1ccc(OCc2ccc3c(c2)CCS3(=O)=O)cc1 [Example 32, 3-[4-(1,1-Dioxo-2,3-dihydro-1H-1lambda*6*-benzo[b]thiophen-5-ylmethoxy)-phenyl]-isoxazol-4-ylamine]		259
Nc1conc1-c1ccc(OCc2ccc3c(c2)C=CS3(=O)=O)cc1 [Example 33, 3-[4-(1,1-Dioxo-1H-1lambda*6*-benzo[b]thiophen-5-ylmethoxy)-phenyl]-isoxazol-4-ylamine]		411
Nc1conc1-c1ccc(OCc2ccc(S(=O)(=O)c3ccccc3)cc2)cc1 [Example 34, 3-[4-(4-Benzenesulfonyl-benzyloxy)-phenyl]-isoxazol-4-ylamine]		673
CSc1ccc(COc2ccc(-c3nocc3N)cc2)cc1 [Example 35, 3-[4-(4-Methylsulfanyl-benzyloxy)-phenyl]-isoxazol-4-ylamine hydrochloride]		99
Nc1conc1-c1ccc(OCc2ccc(SC(F)(F)F)cc2)cc1 [Example 36, 3-[4-(4-Trifluoromethylsulfanyl-benzyloxy)-phenyl]-isoxazol-4-ylamine hydrochloride]		51
